Test results reported in publication PMC8151276, “An Integrated Approach toward NanoBRET Tracers for Analysis of GPCR Ligand Engagement” (Molecules, 2021).

Biological target: T1, OPRD1 (Homo sapiens, UniProt P41143)
T1 construct: purchased Promega (in-house HiBiT-GPCR construct library, NanoBRET)
Test: NanoBRET screen HiBiT-OPRD1 in HEK293
Assay type: binding
Description: Each tracer candidate was screened across the entire library of HiBiT-GPCR constructs using NanoBRET as the detection modality. As depicted in Figure 4A, the specificity of interactions was evaluated through decrease in BRET due to competitive displacement of a bound tracer by excess parental compound. Each tracer was analyzed for binding to each HiBiT-GPCR fusion in the absence and in the presence of competing parental compound. Briefly, HEK293 cells were transfected with HiBiT-GPCR constructs diluted into promoterless DNA to reduce expression and maximize translocation to the cell surface. Each tracer candidate was then screened at concentrations of 1 μM and 0.1 μM across cells expressing these fusions. Cells were treated for 1.5 h with tracer either alone or in the presence of 20 μM competing parental compound (i.e., control). BRET was measured upon addition of purified LgBiT and subsequent complementation with HiBiT genetically fused to a GPCR. The specificity of interactions was assessed through a decrease in BRET signal due to competitive displacement of the bound tracer. To further gauge the robustness of these interactions, the fold response over the control (i.e., BRETtracer/BRETcontrol) was calculated. We chose a 1.5-fold response, which translates to ≥7-fold signal over noise as the minimal threshold required to score an interaction as positive.
HiBiT-GPCR DNA constructs were diluted in 10 mM Tris pH 8 to a final concentration of 0.01 μg/μL, arrayed in 96-well plates and stored at −20 °C. For transfection, HEK293 cells were suspended in Opti-MEM (without phenol red) supplemented with 2% fetal bovine serum (Seradigm) and 100 units/mL penicillin–streptomycin (Gibco) at a final concentration of 220,000 cells/mL and dispensed into white 96-well plates at 90 μL/well. Subsequent transfections and screens were carried using an Agilent Bravo Automated Liquid Handling Platform. First, the 96-well HiBiT DNA arrays were diluted 25-fold in Opti-MEM (without serum or phenol red) to a final concentration of 0.0004 μg/μL and 20 μL of the diluted DNAs were transferred into new 96-well plates. Next, promoterless carrier DNA (1 μg/μL) was diluted 25-fold (0.04 μg/μL) and then dispensed into the diluted arrays at 20 μL/well. Following brief mixing, Viafect transfection reagent (Promega) diluted 16-fold into Opti-MEM was dispensed into the plates at 40 μL/well. After mixing by pipetting, plates were incubated for 10 min on the pipetting station deck. The DNA-transfection reagent complexes were then added to plates containing cells. To facilitate the screen, 10 μL of DNA-transfection reagent complexes were added in duplicates to the top 4 and bottom 4 rows, resulting in two identical 48-well arrays per plate. Plates with transfected cells were incubated for 18–20 h at 37 °C/5% CO2. A screen of each tracer across the entire library using two different concentrations requires duplicate plates of transfected cells. Depending on the number of tracers being screened, transfections can be scaled up using the same ratios. The next day, for each tracer, four 20× screening solutions in tracer dilution buffer (Promega) were prepared: two duplicates at final concentration of 20 μM and two duplicates at a final concentration of 2 μM. […] The four resulting solutions were diluted 4-fold in Opti-MEM without serum or phenol red to generate 5× solutions (5 µM and 0.5 µM tracer +/− 100 μM competing compound). To screen the library, a BioTek MultiFlo FX liquid dispenser was used to dispense 22.5 µL of tracer solution to the top 4 rows and 22.5 µL tracer + competing compound solution to the 4 bottom rows. Plates were briefly mixed on an orbital shaker and incubated for 1.5 h at room temperature. […] Plates were briefly mixed on an orbital shaker and incubated for 15 min to allow complementation.

T1 sequence (P41143 whole entry): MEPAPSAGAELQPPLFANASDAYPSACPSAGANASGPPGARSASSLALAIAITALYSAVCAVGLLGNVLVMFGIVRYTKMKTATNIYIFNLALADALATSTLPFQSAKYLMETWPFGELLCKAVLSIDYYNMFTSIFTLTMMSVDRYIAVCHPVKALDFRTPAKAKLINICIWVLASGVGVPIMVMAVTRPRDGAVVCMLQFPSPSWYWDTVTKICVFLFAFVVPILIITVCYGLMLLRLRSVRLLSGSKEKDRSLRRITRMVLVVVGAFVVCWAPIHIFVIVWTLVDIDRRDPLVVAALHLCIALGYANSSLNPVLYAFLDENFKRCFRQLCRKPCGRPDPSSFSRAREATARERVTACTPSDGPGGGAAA

Row | Compound | NanoBRET Fold Response (OPRD1, tracer 0.1μM) | NanoBRET Fold Response (OPRD1, tracer 1μM) | further results
1 | CCOC(=O)c1cc(C#N)c(N2CCC(C(=O)NS(=O)(=O)Cc3ccccc3/C=C/C(=O)NCCNC(=O)CCc3ccc4n3[B-](F)(F)[N+]3=C(c5ccc[nH]5)C=CC3=C4)CC2)nc1C [AZD1283-1-NB590] | – | – | NanoBRET Fold Response (OPRD1, 0.1μM): 1.09; NanoBRET Fold Response (OPRD1, 1μM): 1.08
2 | N#CN/C(=N\CCNC(=O)c1ccc(N)cc1)NCCCOc1cccc(CN2CCCCC2)c1 [Aminopotentidine (unmodified)] | – | – | NanoBRET Fold Response (OPRD1, other tracers/Aminopotentidine (unmodified), 0.1μM): 1.25; NanoBRET Fold Response (OPRD1, other tracers/Aminopotentidine (unmodified), 1μM): 1.01
3 | N#CN=C(NCCCOc1cccc(CN2CCCCC2)c1)NCCNC(=O)CCOCCOCCOCCOCCNC(=O)CCc1ccc2n1[B-](F)(F)[N+]1=C(c3ccc[nH]3)C=CC1=C2 [Aminopotentidine-2-NB590] | 1.05 | 1.02 | –
4 | CN(C)CCC=C1c2ccccc2CCc2ccc(C(=O)NCCNC(=O)CCOCCOCCOCCOCCNC(=O)CCc3ccc4n3[B-](F)(F)[N+]3=C(c5ccc[nH]5)C=CC3=C4)cc21 [Amitriptyline-a-2-NB590] | – | – | NanoBRET Fold Response (tracer at 0.1μM): 0.99; NanoBRET Fold Response (tracer at 1μM): 0.91
5 | CN(C)CCC=C1c2ccccc2CCc2ccc(C(=O)NCCNC(=O)CCOCCOCCOCCOCCNC(=O)CCc3ccc4n3[B-](F)(F)[N+]3=C(c5ccc[nH]5)C=CC3=C4)cc21 [Amitriptyline-b-2-NB590] | – | – | NanoBRET Fold Response (tracer at 0.1μM, listed as amitriptyline-b-2-NB590): 1.01; NanoBRET Fold Response (tracer at 1μM, listed as amitriptyline-b-2-NB590): 1.01
6 | CN(CCC=C1c2ccccc2CCc2ccccc21)C(=O)CCOCCOCCOCCOCCNC(=O)CCc1ccc2n1[B-](F)(F)[N+]1=C(c3ccc[nH]3)C=CC1=C2 [Amitriptyline-e-2-NB590] | – | – | NanoBRET Fold Response (tracer at 1μM): 1.01
7 | COc1ccc2c(n1)c(CCNC(C)=O)cn2CCNC(=O)CCc1ccc2n1[B-](F)(F)[N+]1=C(c3ccc[nH]3)C=CC1=C2 [Azamelatonin-1-NB590] | – | – | NanoBRET Fold Response (0.1μM tracer): 1.00; NanoBRET Fold Response (1μM tracer): 1.00
8 | COc1ccc2[nH]c(-c3ccc(CNC(=O)CCOCCOCCOCCOCCNC(=O)CCc4ccc5n4[B-](F)(F)[N+]4=C(c6ccc[nH]6)C=CC4=C5)cc3)c(CCNC(C)=O)c2n1 [AzomelatoninICO9-2-NB590] | – | – | NanoBRET Fold Response (0.1μM tracer): 1.06; NanoBRET Fold Response (1μM tracer): 1.03
9 | O=C(CCOCCOCCOCCOCCNC(=O)CCc1ccc2n1[B-](F)(F)[N+]1=C(c3ccc[nH]3)C=CC1=C2)NCCCN1CCN(C2=Nc3cc(Cl)ccc3Nc3ccccc32)CC1 [Clozapine-a-2-NB590] | – | – | NanoBRET Fold Response (OPRD1, 0.1μM tracer): 1.04; NanoBRET Fold Response (OPRD1, 1μM tracer): 0.95
10 | CN1CCN(C2=Nc3cc(Cl)ccc3Nc3ccc(CNC(=O)CCOCCOCCOCCOCCNC(=O)CCc4ccc5n4[B-](F)(F)[N+]4=C(c6ccc[nH]6)C=CC4=C5)cc32)CC1 [Clozapine-b-2-NB590] | – | – | NanoBRET Fold Response (OPRD1, 0.1μM tracer): 1.02; NanoBRET Fold Response (OPRD1, 1μM tracer): 0.99
11 | CN1CCN(C2=Nc3cc(Cl)ccc3N(CC(=O)NCCOCCOCCOCCOCCNC(=O)CCc3ccc4n3[B-](F)(F)[N+]3=C(c5ccc[nH]5)C=CC3=C4)c3ccccc32)CC1 [Clozapine-c-2-NB590] | – | – | NanoBRET Fold Response (OPRD1, 0.1μM tracer): 0.99; NanoBRET Fold Response (OPRD1, 1μM tracer): 0.92
12 | O=C(CCOCCOCCOCCOCCNC(=O)CCc1ccc2n1[B-](F)(F)[N+]1=C(c3ccc[nH]3)C=CC1=C2)NCCCN1CCN(C2=Nc3ccccc3Oc3ccc(Cl)cc32)CC1 [Loxapine-a-2-NB590] | 1.01 | 1.04 | –
13 | COc1ccccc1N1CCN(CCCCN2C(=O)c3ccc(CNC(=O)CCOCCOCCOCCOCCNC(=O)CCc4ccc5n4[B-](F)(F)[N+]4=C(c6ccc[nH]6)C=CC4=C5)cc3C2=O)CC1 [NAN-190-2-NB590] | 0.98 | – | –
14 | COc1ccccc1N1CCN(CCCCN2C(=O)c3ccc(CNC(=O)CCOCCNC(=O)c4ccc(CNC(=O)CCc5ccc6n5[B-](F)(F)[N+]5=C(c7ccc[nH]7)C=CC5=C6)cc4)cc3C2=O)CC1 [NAN-190-3-NB590] | 0.79 | 1.17 | –
15 | O=C(CCc1ccc2n1[B-](F)(F)[N+]1=C(c3ccc[nH]3)C=CC1=C2)NCc1ccc(C(=O)NCCOCCC(=O)N[C@@H]2CC[C@@]3(O)[C@H]4Cc5ccc(O)c6c5[C@@]3(CCN4CC3CC3)[C@H]2O6)cc1 [Naltrexone-3-NB590] | 1.81 | 1.52 | –
16 | Cc1cc2c(s1)Nc1ccccc1N=C2N1CCN(CCCNC(=O)CCOCCOCCOCCOCCNC(=O)CCc2ccc3n2[B-](F)(F)[N+]2=C(c4ccc[nH]4)C=CC2=C3)CC1 [Olanzapine-a-2-NB590] | 0.95 | 1.09 | –
17 | O=C(CCc1ccc2n1[B-](F)(F)[N+]1=C(c3ccc[nH]3)C=CC1=C2)NCc1ccc(C(=O)NCCOCCOCCNCC(O)COc2cccc3ccccc23)cc1 (stereo not drawn) [Propranolol-3-NB590] | – | – | NanoBRET Fold Response (OPRD1, 0.1μM): 0.97; NanoBRET Fold Response (OPRD1, 1μM): 1.01
18 | O=C(CCc1ccc2n1[B-](F)(F)[N+]1=C(c3ccc[nH]3)C=CC1=C2)NCCOCCOCCNC(=O)OCCOCCN1CCN(C2=Nc3ccccc3Sc3ccccc32)CC1 [Quetiapine-a-2-NB590] | 1.11 | 0.89 | –
19 | Cc1nc2n(c(=O)c1CCN1CCC(c3noc4cc(F)ccc34)CC1)CCCC2OC(=O)NCCOCCOCCOCCOCCNC(=O)CCc1ccc2n1[B-](F)(F)[N+]1=C(c3ccc[nH]3)C=CC1=C2 (stereo not drawn) [Risperidone-2-NB590] | 0.99 | 0.99 | –
20 | CC(C)N(CC[C@H](c1ccccc1)c1cc(CCNC(=O)CCOCCOCCOCCOCCNC(=O)CCc2ccc3n2[B-](F)(F)[N+]2=C(c4ccc[nH]4)C=CC2=C3)ccc1O)C(C)C [Tolterodine-2-NB590] | 1.00 | 0.94 | –
21 | CC(C)N(CC[C@H](c1ccccc1)c1cc(CCNC(=O)c2ccc(CNC(=O)CCc3ccc4n3[B-](F)(F)[N+]3=C(c5ccc[nH]5)C=CC3=C4)cc2)ccc1O)C(C)C [Tolterodine-BZ-NB590] | 1.06 | 1.05 | –
22 | CCCn1c(=O)c2[nH]c(-c3ccc(OCC(=O)NCCNC(=O)CCOCCNC(=O)c4ccc(CNC(=O)CCc5ccc6n5[B-](F)(F)[N+]5=C(c7ccc[nH]7)C=CC5=C6)cc4)cc3)nc2n(CCC)c1=O [XAC-3-NB590] | 0.97 | 0.81 | –
